Laboratory results published in ChEMBL document CHEMBL4330132, “5-Keto-3-cyano-2,4-diaminothiophenes as selective maternal embryonic leucine zipper kinase inhibitors” (Bioorg Med Chem Lett, 2019).

Experiments:
[1] = target: Non-receptor tyrosine-protein kinase TNK1 (Homo sapiens) (UniProt Q13470); assay: Binding affinity to wild-type human full length TNK1 (M1 to P661 residues) expressed in bacterial expression system assessed as residual binding level at 1 uM by Kinomescan method relative to control
Non-receptor tyrosine-protein kinase TNK1 (Homo sapiens), sequence (Q13470 whole entry, the tested form may be a part): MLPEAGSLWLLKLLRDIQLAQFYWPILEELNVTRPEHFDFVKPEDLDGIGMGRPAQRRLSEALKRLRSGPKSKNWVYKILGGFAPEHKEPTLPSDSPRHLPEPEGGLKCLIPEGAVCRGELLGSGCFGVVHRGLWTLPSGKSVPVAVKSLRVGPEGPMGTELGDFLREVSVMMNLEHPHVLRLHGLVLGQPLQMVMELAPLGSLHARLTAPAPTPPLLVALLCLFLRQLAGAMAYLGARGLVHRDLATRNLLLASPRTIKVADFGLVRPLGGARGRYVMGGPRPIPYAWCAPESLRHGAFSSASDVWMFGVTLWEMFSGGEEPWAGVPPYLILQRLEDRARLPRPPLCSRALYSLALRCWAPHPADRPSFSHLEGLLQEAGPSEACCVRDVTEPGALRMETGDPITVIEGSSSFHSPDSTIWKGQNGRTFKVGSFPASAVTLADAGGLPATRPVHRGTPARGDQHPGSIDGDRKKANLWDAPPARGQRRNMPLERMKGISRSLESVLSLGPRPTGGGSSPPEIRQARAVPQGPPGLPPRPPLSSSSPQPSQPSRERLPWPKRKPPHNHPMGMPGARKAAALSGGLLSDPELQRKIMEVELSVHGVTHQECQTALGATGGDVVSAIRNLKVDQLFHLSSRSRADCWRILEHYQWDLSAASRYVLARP

[2] = target: Tyrosine-protein kinase ABL2 (Homo sapiens) (UniProt P42684); assay: Binding affinity to wild-type human ABL2 (A248 to G542 residues) expressed in bacterial expression system assessed as residual binding level at 1 uM by Kinomescan method relative to control
[3] = target: Serine/threonine-protein kinase 26 (Homo sapiens) (UniProt Q9P289); assay: Binding affinity to wild-type human full length MST4 (M1 to P416 residues) expressed in mammalian expression system assessed as residual binding level at 1 uM by Kinomescan method relative to control
[4] = target: Ephrin type-B receptor 6 (Homo sapiens) (UniProt O15197); assay: Binding affinity to wild-type human partial length EPHB6 (Q634 to P948 residues) expressed in mammalian expression system assessed as residual binding level at 1 uM by Kinomescan method relative to control
[5] = target: Serine/threonine-protein kinase ULK3 (Homo sapiens) (UniProt Q6PHR2); assay: Binding affinity to wild-type human partial length ULK3 (M1 to Q290 residues) expressed in mammalian expression system assessed as residual binding level at 1 uM by Kinomescan method relative to control
Serine/threonine-protein kinase ULK3 (Homo sapiens), sequence (Q6PHR2 whole entry, the tested form may be a part): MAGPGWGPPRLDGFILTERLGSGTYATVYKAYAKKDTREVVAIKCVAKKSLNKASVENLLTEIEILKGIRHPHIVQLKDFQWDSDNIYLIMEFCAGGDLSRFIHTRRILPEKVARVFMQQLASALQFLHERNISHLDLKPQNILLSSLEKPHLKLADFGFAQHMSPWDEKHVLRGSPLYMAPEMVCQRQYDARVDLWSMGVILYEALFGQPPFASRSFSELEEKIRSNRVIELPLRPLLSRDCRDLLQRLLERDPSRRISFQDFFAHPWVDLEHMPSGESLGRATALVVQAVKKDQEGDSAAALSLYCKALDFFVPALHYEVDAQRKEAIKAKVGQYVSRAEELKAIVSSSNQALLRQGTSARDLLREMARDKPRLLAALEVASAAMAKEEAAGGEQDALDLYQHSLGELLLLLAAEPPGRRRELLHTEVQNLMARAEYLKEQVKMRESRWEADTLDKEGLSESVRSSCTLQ

[6] = target: Homeodomain-interacting protein kinase 2 (Homo sapiens) (UniProt Q9H2X6); assay: Binding affinity to wild-type human partial length HIPK2 (M153 to S564 residues) expressed in mammalian expression system assessed as residual binding level at 1 uM by Kinomescan method relative to control
[7] = target: Ribosomal protein S6 kinase alpha-1 (Homo sapiens) (UniProt Q15418); assay: Binding affinity to wild-type human partial length C-terminal RSK1 kinase domain 2 (P360 to L681 residues) expressed in bacterial expression system assessed as residual binding level at 1 uM by Kinomescan method relative to control
[8] = target: Bone morphogenetic protein receptor type-1A (Homo sapiens) (UniProt P36894); assay: Binding affinity to wild-type human partial length BMPR1A (Q214 to I532 residues) expressed in bacterial expression system assessed as residual binding level at 1 uM by Kinomescan method relative to control
[9] = target: Ribosomal protein S6 kinase alpha-5 (Homo sapiens) (UniProt O75582); assay: Binding affinity to wild-type human partial length N-terminal RPS6KA5 kinase domain 1 expressed in bacterial expression system assessed as residual binding level at 1 uM by Kinomescan method relative to control
Ribosomal protein S6 kinase alpha-5 (Homo sapiens), sequence (O75582 whole entry, looked up, the tested form may be a part): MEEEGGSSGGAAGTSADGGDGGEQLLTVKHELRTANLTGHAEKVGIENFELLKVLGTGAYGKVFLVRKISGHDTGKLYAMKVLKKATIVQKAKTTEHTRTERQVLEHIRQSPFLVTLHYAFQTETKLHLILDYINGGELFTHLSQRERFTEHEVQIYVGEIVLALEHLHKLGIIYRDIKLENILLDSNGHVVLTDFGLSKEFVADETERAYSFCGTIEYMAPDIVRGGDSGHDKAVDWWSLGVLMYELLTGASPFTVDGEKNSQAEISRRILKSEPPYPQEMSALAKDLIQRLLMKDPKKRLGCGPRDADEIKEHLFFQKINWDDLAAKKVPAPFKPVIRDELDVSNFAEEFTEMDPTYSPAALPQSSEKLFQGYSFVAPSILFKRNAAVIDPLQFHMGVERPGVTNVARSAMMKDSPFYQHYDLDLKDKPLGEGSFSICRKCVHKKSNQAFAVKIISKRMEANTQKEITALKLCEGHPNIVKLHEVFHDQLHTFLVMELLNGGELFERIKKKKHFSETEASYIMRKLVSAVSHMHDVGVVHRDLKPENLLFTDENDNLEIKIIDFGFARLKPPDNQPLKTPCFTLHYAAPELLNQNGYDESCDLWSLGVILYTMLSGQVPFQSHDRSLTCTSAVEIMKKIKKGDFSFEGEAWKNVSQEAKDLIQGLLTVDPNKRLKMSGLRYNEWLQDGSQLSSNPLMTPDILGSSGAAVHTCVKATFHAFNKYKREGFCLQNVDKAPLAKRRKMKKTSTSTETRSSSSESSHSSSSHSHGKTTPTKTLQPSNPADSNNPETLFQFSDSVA

[10] = target: G protein-coupled receptor kinase 4 (Homo sapiens) (UniProt P32298); assay: Binding affinity to wild-type human full length GRK4 (M1 to C578 residues) expressed in bacterial expression system assessed as residual binding level at 1 uM by Kinomescan method relative to control
[11] = target: Mitogen-activated protein kinase kinase kinase 6 (Homo sapiens) (UniProt O95382); assay: Binding affinity to wild-type human partial length ASK2 (M278 to R972 residues) expressed in mammalian expression system assessed as residual binding level at 1 uM by Kinomescan method relative to control
[12] = target: Ephrin type-A receptor 8 (Homo sapiens) (UniProt P29322); assay: Binding affinity to wild-type human partial length EPHA8 (Q608 to C920 residues) expressed in bacterial expression system assessed as residual binding level at 1 uM by Kinomescan method relative to control
Ephrin type-A receptor 8 (Homo sapiens), sequence (P29322 whole entry, the tested form may be a part): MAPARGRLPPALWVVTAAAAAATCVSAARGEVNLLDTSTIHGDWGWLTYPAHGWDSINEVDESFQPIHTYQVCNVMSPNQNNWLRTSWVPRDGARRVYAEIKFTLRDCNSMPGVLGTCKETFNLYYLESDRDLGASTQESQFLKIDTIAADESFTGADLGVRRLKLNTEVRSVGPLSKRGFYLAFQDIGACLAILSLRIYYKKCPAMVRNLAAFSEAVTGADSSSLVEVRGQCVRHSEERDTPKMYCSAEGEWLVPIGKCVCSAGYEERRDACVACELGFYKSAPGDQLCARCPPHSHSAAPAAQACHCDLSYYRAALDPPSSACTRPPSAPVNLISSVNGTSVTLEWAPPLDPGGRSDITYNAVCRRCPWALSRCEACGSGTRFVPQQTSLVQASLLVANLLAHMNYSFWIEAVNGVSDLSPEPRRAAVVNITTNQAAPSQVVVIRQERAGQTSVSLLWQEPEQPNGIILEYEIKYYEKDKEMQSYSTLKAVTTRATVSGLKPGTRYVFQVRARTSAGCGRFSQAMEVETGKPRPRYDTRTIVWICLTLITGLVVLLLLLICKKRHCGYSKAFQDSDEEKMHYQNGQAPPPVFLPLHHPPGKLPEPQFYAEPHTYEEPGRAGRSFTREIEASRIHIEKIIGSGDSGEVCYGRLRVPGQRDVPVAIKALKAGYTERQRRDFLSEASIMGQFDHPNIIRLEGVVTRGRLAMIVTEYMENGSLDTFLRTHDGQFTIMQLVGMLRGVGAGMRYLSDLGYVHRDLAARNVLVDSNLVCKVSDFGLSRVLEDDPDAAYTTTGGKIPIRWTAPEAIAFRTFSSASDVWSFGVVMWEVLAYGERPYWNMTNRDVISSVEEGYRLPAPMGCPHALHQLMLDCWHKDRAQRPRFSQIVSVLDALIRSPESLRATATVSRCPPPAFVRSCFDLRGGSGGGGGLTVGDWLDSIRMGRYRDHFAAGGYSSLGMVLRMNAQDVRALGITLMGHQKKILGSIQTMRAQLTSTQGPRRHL

[13] = target: Dual specificity protein kinase CLK4 (Homo sapiens) (UniProt Q9HAZ1); assay: Binding affinity to wild-type human partial length CLK4 (R135 to K481 residues) expressed in bacterial expression system assessed as residual binding level at 1 uM by Kinomescan method relative to control
[14] = target: Ribosomal protein S6 kinase alpha-2 (Homo sapiens) (UniProt Q15349); assay: Binding affinity to wild-type human partial length N-terminal RSK3 kinase domain 1 (M1 to Q385 residues) expressed in bacterial expression system assessed as residual binding level at 1 uM by Kinomescan method relative to control
Ribosomal protein S6 kinase alpha-2 (Homo sapiens), sequence (Q15349 whole entry, the tested form may be a part): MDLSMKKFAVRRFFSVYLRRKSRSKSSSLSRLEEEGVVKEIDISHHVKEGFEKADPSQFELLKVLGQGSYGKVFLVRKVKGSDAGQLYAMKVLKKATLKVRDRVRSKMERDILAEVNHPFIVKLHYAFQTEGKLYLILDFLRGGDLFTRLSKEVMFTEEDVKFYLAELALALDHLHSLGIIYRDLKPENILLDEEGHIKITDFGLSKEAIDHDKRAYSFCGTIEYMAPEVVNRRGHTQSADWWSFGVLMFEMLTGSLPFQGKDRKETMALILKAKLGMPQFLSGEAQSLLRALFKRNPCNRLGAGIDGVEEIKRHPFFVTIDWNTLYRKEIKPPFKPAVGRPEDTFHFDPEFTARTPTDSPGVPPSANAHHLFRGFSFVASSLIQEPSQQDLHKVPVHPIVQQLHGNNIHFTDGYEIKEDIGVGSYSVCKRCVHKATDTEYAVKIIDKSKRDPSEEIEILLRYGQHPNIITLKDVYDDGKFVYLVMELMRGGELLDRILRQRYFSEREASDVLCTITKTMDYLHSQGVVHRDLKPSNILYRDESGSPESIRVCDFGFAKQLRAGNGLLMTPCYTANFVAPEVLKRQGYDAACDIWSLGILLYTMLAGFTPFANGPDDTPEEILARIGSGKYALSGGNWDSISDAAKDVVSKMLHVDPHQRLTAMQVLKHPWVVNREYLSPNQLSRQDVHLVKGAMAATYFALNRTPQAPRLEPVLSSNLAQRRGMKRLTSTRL

[15] = target: LIM domain kinase 2 (Homo sapiens) (UniProt P53671); assay: Binding affinity to wild-type human full length LIMK2 (M1 to P638 residues) expressed in bacterial expression system assessed as residual binding level at 1 uM by Kinomescan method relative to control
[16] = target: Serine/threonine-protein kinase Nek1 (Homo sapiens) (UniProt Q96PY6); assay: Binding affinity to wild-type human partial length NEK1 (M1 to K278 residues) expressed in bacterial expression system assessed as residual binding level at 1 uM by Kinomescan method relative to control
[17] = target: Macrophage-stimulating protein receptor (Homo sapiens) (UniProt Q04912); assay: Binding affinity to wild-type human partial length MST1R (I1057 to L1363 residues) expressed in bacterial expression system assessed as residual binding level at 1 uM by Kinomescan method relative to control
[18] = target: Cyclin-dependent kinase 11B (Homo sapiens) (UniProt P21127); assay: Binding affinity to wild-type human partial length CDC2L1 (P353 to G692 residues) expressed in bacterial expression system assessed as residual binding level at 1 uM by Kinomescan method relative to control
[19] = target: Activin receptor type-1B (Homo sapiens) (UniProt P36896); assay: Binding affinity to wild-type human ACVR1B (S187 to I505 residues) expressed in bacterial expression system assessed as residual binding level at 1 uM by Kinomescan method relative to control
[20] = target: Cyclin-dependent kinase 19 (Homo sapiens) (UniProt Q9BWU1); assay: Binding affinity to wild-type human partial length CDK11 (M1 to N360 residues) expressed in bacterial expression system assessed as residual binding level at 1 uM by Kinomescan method relative to control
[21] = target: Mitogen-activated protein kinase kinase kinase 20 (Homo sapiens) (UniProt Q9NYL2); assay: Binding affinity to wild-type human partial length ZAK (M1 to L331 residues) expressed in bacterial expression system assessed as residual binding level at 1 uM by Kinomescan method relative to control
[22] = target: Serine/threonine-protein kinase 3 (Homo sapiens) (UniProt Q13188); assay: Binding affinity to wild-type human partial length MST2 (D17 to E318 residues) expressed in bacterial expression system assessed as residual binding level at 1 uM by Kinomescan method relative to control
[23] = target: Calcium/calmodulin-dependent protein kinase type IV (Homo sapiens) (UniProt Q16566); assay: Binding affinity to wild-type human partial length CAMK4 (A22 to A322 residues) expressed in bacterial expression system assessed as residual binding level at 1 uM by Kinomescan method relative to control
Calcium/calmodulin-dependent protein kinase type IV (Homo sapiens), sequence (Q16566 whole entry, the tested form may be a part): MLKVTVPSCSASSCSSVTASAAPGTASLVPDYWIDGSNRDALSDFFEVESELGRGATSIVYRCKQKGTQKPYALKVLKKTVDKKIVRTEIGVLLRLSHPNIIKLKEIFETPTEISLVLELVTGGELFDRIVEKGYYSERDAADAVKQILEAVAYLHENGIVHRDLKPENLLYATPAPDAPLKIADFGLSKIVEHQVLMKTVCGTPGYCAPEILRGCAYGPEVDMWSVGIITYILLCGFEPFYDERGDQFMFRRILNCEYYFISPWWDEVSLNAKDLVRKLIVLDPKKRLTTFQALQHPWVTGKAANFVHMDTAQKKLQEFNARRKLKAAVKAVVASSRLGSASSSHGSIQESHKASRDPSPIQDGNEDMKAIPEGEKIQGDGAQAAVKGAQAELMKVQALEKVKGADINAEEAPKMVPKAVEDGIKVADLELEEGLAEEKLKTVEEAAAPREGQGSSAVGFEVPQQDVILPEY

[24] = tested on: Epidermal growth factor receptor (Homo sapiens), P00533 [UNDEFINED MUTATION]; assay: Binding affinity to human partial length EGFR L747-T751del/Sins mutant expressed in bacterial expression system assessed as residual binding level at 1 uM by Kinomescan method relative to control
[25] = target: Fibroblast growth factor receptor 1 (Homo sapiens) (UniProt P11362); assay: Binding affinity to wild-type human partial length FGFR1 (P357 to V669 residues) expressed in bacterial expression system assessed as residual binding level at 1 uM by Kinomescan method relative to control
Fibroblast growth factor receptor 1 (Homo sapiens), sequence (P11362 22-822 limits assumed): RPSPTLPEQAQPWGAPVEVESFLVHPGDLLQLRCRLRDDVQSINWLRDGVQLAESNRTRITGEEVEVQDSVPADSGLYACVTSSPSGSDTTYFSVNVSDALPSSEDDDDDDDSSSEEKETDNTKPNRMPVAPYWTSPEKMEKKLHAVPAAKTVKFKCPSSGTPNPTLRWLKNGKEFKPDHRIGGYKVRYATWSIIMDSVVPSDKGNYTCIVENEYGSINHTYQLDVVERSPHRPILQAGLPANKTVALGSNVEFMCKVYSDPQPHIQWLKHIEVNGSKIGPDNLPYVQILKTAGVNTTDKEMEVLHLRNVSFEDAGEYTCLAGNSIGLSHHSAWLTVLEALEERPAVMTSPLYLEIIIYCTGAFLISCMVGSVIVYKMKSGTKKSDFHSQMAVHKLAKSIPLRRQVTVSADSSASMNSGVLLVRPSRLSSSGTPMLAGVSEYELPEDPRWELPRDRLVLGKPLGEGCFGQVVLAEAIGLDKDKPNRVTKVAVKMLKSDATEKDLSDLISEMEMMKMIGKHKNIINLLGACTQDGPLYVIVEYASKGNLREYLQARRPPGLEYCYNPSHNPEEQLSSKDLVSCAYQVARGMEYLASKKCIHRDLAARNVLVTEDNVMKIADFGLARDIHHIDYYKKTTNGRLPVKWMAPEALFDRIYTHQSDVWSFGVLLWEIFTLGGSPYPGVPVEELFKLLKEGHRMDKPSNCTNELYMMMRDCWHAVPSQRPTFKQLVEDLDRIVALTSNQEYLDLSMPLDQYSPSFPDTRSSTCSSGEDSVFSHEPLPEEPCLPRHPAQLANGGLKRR

## CC(C)Nc1sc(C(=O)c2ccc(Cl)s2)c(N)c1C#N
[1]
  Activity: 70%
[2]
  Activity: 95%
[3]
  Activity: 100%
[4]
  Activity: 100%
[5]
  Activity: 99%
[6]
  Activity: 94%
[7]
  Activity: 85%
[8]
  Activity: 100%
[9]
  Activity: 92%
[10]
  Activity: 74%
[11]
  Activity: 100%
[12]
  Activity: 86%
[13]
  Activity: 88%
[14]
  Activity: 54%
[15]
  Activity: 100%
[16]
  Activity: 79%
[17]
  Activity: 98%
[18]
  Activity: 100%
[19]
  Activity: 82%
[20]
  Activity: 83%
[21]
  Activity: 95%
[22]
  Activity: 82%
[23]
  Activity: 100%
[24]
  Activity: 100%
[25]
  Activity: 70%
